Values joined by “and” are separate entries in the source; they are usually repeats but may differ in a detail not shown here. Equal entries are not always repeated. Where two headings read alike, the source gives them in different places.
B1: FtsA R286W (protein)
chain: MIKATDRKLVVGLEIGTAKVAALVGEVLPDGMVNIIGVGSCPSRGMDKGGVNDLESVVKCVQRAIDQAELMADCQISSVYLALSGKHISCQNEIGMVPISEEEVTQEDVENVVHTAKSVRVRDEHRVLHVIPQEYAIDYQEGIKNPVGLSGVRMQAKVHLITCHNDMAKNIVKAVERCGLKVDQLIFAGLASSYSVLTEDERELGVCVVDIGGGTMDIAVYTGGALRHTKVIPYAGNVVTSDIAYAFGTPPSDAEAIKVRHGCALGSIVGKDESVEVPSVGGRPPWSLQRQTLAEVIEPRYTELLNLVNEEILQLQEKLRQQGVKHHLAAGIVLTGGAAQIEGLAACAQRVFHTQVRIGAPLNITGLTDYAQEPYYSTAVGLLHYGKESHLNGEAEVEKRVTASVGSWIKRLNSWLRKEF
modifications: Cy3 or Cy5 at the N-terminus in the labelled form (labelled CLEPTGG peptide conjugated to the 5xGly tag by sortagging); unlabelled protein also used; left off: TwinStrep-SUMO, N-terminal, cleaved | 5x

Tests used:
FtsA/Z co-filaments = assay type: biochemical, E. coli; conditions: Fig. 2g, mean
Protocol: By fitting an exponential function to the increase of the PCC with time, we were able to extract the corresponding recruitment rate (Fig. 2f, g).
Subsequently, the chamber was washed 6x with reaction buffer, to remove bulk peptide. To visualize colocalization with either FtsZ or FtsA, either a mix of FtsA and Alexa488-FtsZ or Cy3-FtsA and FtsZ was added. […] The time-lapse videos were recorded for 10 min after the addition, with one frame per 2 s.

[1] = Single-molecule membrane residence time of FtsA; assay type: binding; set-up: Single Molecule Lifetime: unit not given here; conditions: for Single Molecule Lifetime, mean: mean of Exp. 1-3, n = 3, Fig. 3b; for mean residence time on the membrane: single-particle tracking, n = 3
Protocol: (§1) First, we studied the behaviour of single FtsA proteins on the membrane surface.
(§2) After 5 min of incubation, single molecule time lapses were acquired every 125, 250, 500, and 1000 and 2000 ms, with an exposure time of 50 ms. Subsequently, the bulk concentration of FtsA was increased to 0.2/0.4/0.8 µM and time lapses were repeated as described above.
(§3) Single molecules of FtsA or FtsZ were tracked using the TrackMate plugin from ImageJ[43]. To obtain the residence time of FtsZ and FtsA, we performed a residence time analysis as described before[40],[47]. Shortly, single molecules were imaged at different acquisition rates (0.1–2 s) and the lifetime of the molecules was extracted from each data set. To account for photobleaching effect, the obtained lifetimes were plotted against the acquisition rate. […] Furthermore, we extracted the diffusion coefficient of FtsA single molecules at increasing concentrations. For this, we filtered the obtained data, by considering only trajectories which are present on the membrane for more than 0.4 s. […] Subsequently, the diffusion coefficient of FtsA molecules was estimated by fitting an MSD curve to each individual trajectory.

[2] = Single-molecule diffusion coefficient of FtsA on the membrane; conditions: for Diffusion Coefficient: single-particle tracking, n = 3; for Single Molecule Diffusion Constant, mean: mean of Exp. 1-3, n = 3, Fig. 3b
Protocol: as §1, §2, §3

Molecule	Recruitment rate of FtsN to FtsZ filaments (FtsA/Z co-filaments; Concentration 0.10 µM)	Recruitment rate of FtsN to FtsZ filaments (FtsA/Z co-filaments; Concentration 0.20 µM)	Recruitment rate of FtsN to FtsZ filaments (FtsA/Z co-filaments; Concentration 0.40 µM)	Recruitment rate of FtsN to FtsZ filaments (FtsA/Z co-filaments; Concentration 0.80 µM)	Single Molecule Lifetime ([1]; 0.1 µM FtsA, Exp. 1)	Single Molecule Lifetime ([1]; 0.1µM FtsA, Exp. 2)	Single Molecule Lifetime ([1]; 0.1 µM FtsA, Exp. 3)	Single Molecule Lifetime, mean ([1]; 0.1 µM FtsA)	Single Molecule Lifetime ([1]; 0.2 µM FtsA, Exp. 1)	Single Molecule Lifetime ([1]; 0.2µM FtsA, Exp. 2)	Single Molecule Lifetime ([1]; 0.2 µM FtsA, Exp. 3)	Single Molecule Lifetime, mean ([1]; 0.2 µM FtsA)	Single Molecule Lifetime ([1]; 0.4 µM FtsA, Exp. 1)	Single Molecule Lifetime ([1]; 0.4µM FtsA, Exp. 2)	Single Molecule Lifetime ([1]; 0.4 µM FtsA, Exp. 3)	Single Molecule Lifetime, mean ([1]; 0.4 µM FtsA)	Single Molecule Lifetime ([1]; 0.8 µM FtsA, Exp. 1)	Single Molecule Lifetime ([1]; 0.8µM FtsA, Exp. 2)	Single Molecule Lifetime ([1]; 0.8 µM FtsA, Exp. 3)	Single Molecule Lifetime, mean ([1]; 0.8 µM FtsA)	further results
FtsA WT: wild-type E. coli actin-homologue FtsA, membrane anchor of FtsZ	2.60	1.05	0.99	0.85	15.60	17.80	24.80	19.40	13.20	21.50	28.80	21.17	28.70	24.00	26.30	26.33	37.60	32.60	35.20	35.13	mean residence time on the membrane ([1]; 0.1 µM FtsA): 19.4 ± 3.9 s; mean residence time on the membrane ([1]; 0.8 µM FtsA): 35.1 ± 2.0 s; Single Molecule Diffusion Constant ([2]; 0.1 µM FtsA, Exp. 1): 0.1660 µm2/s; Single Molecule Diffusion Constant ([2]; 0.1µM FtsA, Exp. 2): 0.0799 µm2/s; Single Molecule Diffusion Constant ([2]; 0.1 µM FtsA, Exp. 3): 0.1610 µm2/s; Diffusion Coefficient ([2]; 0.1 µM FtsA): 0.14 ± 0.04 µm^2/s; Single Molecule Diffusion Constant ([2]; 0.2 µM FtsA, Exp. 1): 0.0839 µm2/s; Single Molecule Diffusion Constant ([2]; 0.2µM FtsA, Exp. 2): 0.0498 µm2/s; Single Molecule Diffusion Constant ([2]; 0.2 µM FtsA, Exp. 3): 0.0248 µm2/s; Single Molecule Diffusion Constant, mean ([2]; 0.2 µM FtsA): 0.053 µm2/s and 0.0528 µm2/s; Single Molecule Diffusion Constant ([2]; 0.4 µM FtsA, Exp. 1): 0.0130 µm2/s; Single Molecule Diffusion Constant ([2]; 0.4µM FtsA, Exp. 2): 0.0096 µm2/s; Single Molecule Diffusion Constant ([2]; 0.4 µM FtsA, Exp. 3): 0.0225 µm2/s; Single Molecule Diffusion Constant, mean ([2]; 0.4 µM FtsA): 0.015 µm2/s and 0.0150 µm2/s; Single Molecule Diffusion Constant ([2]; 0.8 µM FtsA, Exp. 1): 0.0048 µm2/s; Single Molecule Diffusion Constant ([2]; 0.8µM FtsA, Exp. 2): 0.0025 µm2/s; Single Molecule Diffusion Constant ([2]; 0.8 µM FtsA, Exp. 3): 0.0035 µm2/s; Diffusion Coefficient ([2]; 0.8 µM FtsA): 0.004 ± 0.001 µm^2/s
B1	2.71	3.32	2.53	2.36	1.99	2.89	3.02	2.63	3.32	7.68	10.90	7.30	8.16	11.60	5.33	8.36	15.60	10.90	15.80	14.10	Single Molecule Diffusion Constant ([2]; 0.1 µM FtsA, Exp. 1): 0.4979 µm2/s; Single Molecule Diffusion Constant ([2]; 0.1µM FtsA, Exp. 2): 0.3931 µm2/s; Single Molecule Diffusion Constant ([2]; 0.1 µM FtsA, Exp. 3): 0.3496 µm2/s; Diffusion Coefficient ([2]; 0.1 µM FtsA): 0.42 ± 0.06 µm^2/s; Single Molecule Diffusion Constant ([2]; 0.2 µM FtsA, Exp. 1): 0.1893 µm2/s; Single Molecule Diffusion Constant ([2]; 0.2µM FtsA, Exp. 2): 0.1662 µm2/s; Single Molecule Diffusion Constant ([2]; 0.2 µM FtsA, Exp. 3): 0.2033 µm2/s; Single Molecule Diffusion Constant ([2]; 0.4 µM FtsA, Exp. 1): 0.1363 µm2/s; Single Molecule Diffusion Constant ([2]; 0.4µM FtsA, Exp. 2): 0.0718 µm2/s; Single Molecule Diffusion Constant ([2]; 0.4 µM FtsA, Exp. 3): 0.1951 µm2/s; Single Molecule Diffusion Constant ([2]; 0.8 µM FtsA, Exp. 1): 0.0600 µm2/s; Single Molecule Diffusion Constant ([2]; 0.8µM FtsA, Exp. 2): 0.0636 µm2/s; Single Molecule Diffusion Constant ([2]; 0.8 µM FtsA, Exp. 3): 0.0391 µm2/s; Single Molecule Diffusion Constant, mean ([2]; 0.8 µM FtsA): 0.054 µm2/s and 0.0542 µm2/s; Diffusion Coefficient ([2]; 0.8 µM FtsA): 0.05 ± 0.01 µm^2/s
